Data on 58 compounds can be found in ChEMBL document CHEMBL5050850, “Compositions and methods of using the same for treatment of neurodegenerative and mitochondrial disease” (2020).

A short description of data set [1]: Induction of mitophagy in human HeLa MKYP cells treated with FCCP/oligomycin for 6 hrs and measured by FACS analysis. Format: functional, cell-based. A general note: A flow cytometer gives signals particle by particle.
For data set [2], the system named is HeLa. In words: Cytotoxicity against human HeLa MKYP cells assessed as percentage of DAPI-positive cells at 50 uM and measured by DAPI staining method. The format is toxicity, cell-based.
Data set [3] relates to HeLa. In words: Cytotoxicity against human HeLa MKYP cells assessed as cell death at 25 uM treated with FCCP/oliogmycin and measured DAPI staining method assay relative to control. The format is toxicity, cell-based.
Data set [4] has as its system HeLa. As to the kind of experiment: Cytotoxicity against human HeLa MKYP cells assessed as cell death at 25 uM and measured DAPI staining method assay relative to control. The format is toxicity, cell-based.
Data set [5] in a line: Ratio of highest compound concentration with no observable mitotoxicity to EC50 of compound to induce mitophagy in human HeLa MKYP cells. Format: functional.
Data set [6] in a line: Induction of mitophagy in human HeLa MKYP cells treated at 6.3 uM with FCCP/oligomycin for 6 hrs and measured by FACS analysis relative to control. Format: functional.

Broadly, the EC50 is the concentration at which the effect is half-maximal. High values mean a need for much substance, low ones an effect from little substance.

`FC(F)(F)c1cc2c(N[C@@H]3CCOc4ccccc43)ncnc2[nH]1`: in data set [1], the concentration giving a half-maximal response (EC50) is 6.3 µM. In addition, the Activity was 21.1% in data set [2], 21% in data set [3] and 3.04% in data set [4]. Further, in data set [5], the Ratio is given as 8.85.
Take `Oc1ccc2c(c1)CCC[C@H]2Nc1ncnc2[nH]c(C(F)(F)F)cc12`: the half-maximal effective concentration (EC50) in data set [1] is 4.38 µM. Further, the Activity came out at 11% in data set [2], 11% in data set [3] and 3.32% in data set [4].
In the case of `CC[C@@H]1CCc2ccccc2[C@@H]1Nc1ncnc2[nH]c(C(F)(F)F)cc12`, the EC50 in data set [1] came out at 1.8 µM. The Activity in data set [2] stood at 8.7%; in data set [3] it was 8.735%; in data set [4], 5.04%. The Ratio in data set [5] came out at 13.8.
`OC[C@H]1CCc2ccccc2[C@@H]1Nc1ncnc2[nH]c(C(F)(F)F)cc12` displayed an EC50 in data set [1] of 5.5 µM. The Activity in data set [2] turned out to be 30.9%; in data set [3], 30.87%; in data set [4], 9.83%.
On to `FC(F)(F)c1cc2c(NCc3ccccc3)ncnc2[nH]1`, for which the figures for the Activity in data set [6] and in data set [2] were 35.1% and 50.4%, respectively.
`FC(F)(F)c1cc2c(NC3CCc4ccccc43)ncnc2[nH]1` (stereo in doubt; 18): the Activity in data set [6] (6 h, 6.3 µM) came out at 14.3%; in data set [2], 1.7%.
Regarding `CC(Nc1ncnc2[nH]c(C(F)(F)F)cc12)c1ccccc1` (stereo unspecified), the values for the Activity in data set [6] and in data set [2] were 88.4% and 2.4%, respectively.
As for `FC(F)(F)c1cc2c(NC3(c4ccccc4)CC3)ncnc2[nH]1`, the Activity in data set [6] worked out at 20.8%; in data set [2], 80.5%.
In data set [1], `CO[C@@H]1COc2ccccc2[C@@H]1Nc1ncnc2[nH]c(C(F)(F)F)cc12` came in with an EC50 of 1.6 µM. For the same compound, the Activity in data set [2] is on record as 12.1%; in data set [3], 12.11%; in data set [4], 3.4%.
On to `CN(C)[C@H]1CCc2ccccc2[C@@H]1Nc1ncnc2[nH]c(C(F)(F)F)cc12`, for which, in data set [1], the EC50 was found to be 0.81 µM. The Activity in data set [2] is given as 79.3%; in data set [3] it was 79.29%; in data set [4], 4.33%.
`CCCCNc1ncnc2[nH]c(C(OCC)C(F)(F)F)cc12` (stereo unspecified): the Activity in data set [6] came to 17.9%; in data set [2] it was 15.8%.
Take `CCCCNc1ncnc2[nH]c(-c3ccnn3C)cc12`: the Activity in data set [6] is 15%; in data set [2], 94.6%.
`FC(F)(F)c1cc2c(NC3CCCc4ccccc43)ncnc2[nH]1` (stereo in doubt; 16): the Activity in data set [6] (6 h, 6.3 µM) is given as 10.1%; in data set [2] it was 4.5%.
For `COc1ccc(CNc2ncnc3[nH]c(C(F)(F)F)cc23)c(OC)c1`, in data set [1], it took 2.08 µM to reach a half-maximal effect (EC50). Moreover, in data set [2], the Activity turned out to be 42.6%.
As for `FC(F)(F)c1cc2c(NC3COc4ccccc43)ncnc2[nH]1` (stereo unspecified), the Activity is listed as 52.5% in data set [6] and 39.7% in data set [2].
In data set [1], `c1ccc2c(c1)CC[C@@H]2Nc1ncnc2[nH]cnc12` gave an EC50 of 4.38 µM. In data set [2], the Activity is on record as 16.2%.
For the compound `c1ccc2c(c1)OCC[C@H]2Nc1ncnc2[nH]c(C3CC3)cc12`, the concentration giving a half-maximal response (EC50) in data set [1] came to 1.98 µM. Also, the Activity is on record as 17.3% in data set [2], 17.3% in data set [3] and 7.26% in data set [4].
`CO[C@H]1COc2ccccc2[C@H]1Nc1ncnc2[nH]c(C(F)(F)F)cc12` displayed an EC50 in data set [1] of 13.3 µM. Further, the Activity in data set [2] is 3.6%; in data set [3], 3.555%; in data set [4], 2.49%.
Turning to `FC(F)(F)c1cc2c(NC3COCc4ccccc43)ncnc2[nH]1` (stereo unspecified), in data set [1], the EC50 is greater than 50 µM. For the same compound, the Activity in data set [2] is 42.9%.
In the case of `COc1ccc2c(c1)[C@@H](Nc1ncnc3[nH]c(C(F)(F)F)cc13)CCC2`, the half-maximal effective concentration (EC50) in data set [1] came to 4 µM. The Activity is given as 3.2% in data set [2], 3.18% in data set [3] and 1.18% in data set [4].
`c1coc(CNc2ncnc3[nH]c(C4CCC4)nc23)c1` displayed an EC50 in data set [1] greater than 50 µM. Also, the Activity in data set [2] is on record as 3%.
Consider `O=S1(=O)Cc2ccccc2C(Nc2ncnc3[nH]c(C(F)(F)F)cc23)C1` (stereo unspecified), for which, in data set [1], the EC50 was greater than 50 µM. Further, in data set [2], the Activity is given as 13.2%.
In the same order, the values of `C[C@@H](Nc1ncnc2[nH]cnc12)c1ccccc1` are 47.4 µM and 10.1%.
In the same order, the values of `C[C@@H](Nc1nccc2[nH]cnc12)c1ccccc1` are greater than 50 µM and 7.6%.
In turn, `C[C@H](Nc1ncnc2[nH]c(C3CC3)nc12)c1ccccc1` came in with an EC50 in data set [1] of 3.17 µM. Besides, in data set [2], the Activity was determined as 27.6%.
Compound `FC(F)(F)c1cc2c(NC3CCOc4ccccc43)ncnc2[nH]1` (stereo unspecified) yielded a half-maximal effective concentration (EC50) in data set [1] of 3.24 µM. Further, the Activity in data set [2] is recorded as 22.3%.
Regarding `CC(C)(Nc1ncnc2[nH]c(C(F)(F)F)cc12)c1ccccc1`, the Activity in data set [6] was 17%; in data set [2], 5.6%.
As for `O[C@H]1Cc2ccccc2[C@H]1Nc1ncnc2[nH]c(C(F)(F)F)cc12`, the EC50 in data set [1] is greater than 50 µM. Also, the Activity in data set [2] stood at 21.2%; in data set [3] it was 21.2%; in data set [4] it was 2.75%.
Consider `C[C@H](Nc1ncnc2[nH]c(C(F)(F)F)cc12)c1ccccc1`, for which the EC50 in data set [1] stood at 0.02 µM. The Activity in data set [2] was 90.8%.
In the case of `CC(Nc1ncnc2[nH]c(C3CC3)nc12)c1ccccc1` (stereo unspecified), in data set [1], the EC50 was found to be 6.3 µM. For the same compound, in data set [2], the Activity was found to be 18.3%.
`C[C@H](Nc1ncnc2[nH]c(C(F)(F)F)cc12)c1cncnc1` returned an EC50 in data set [1] of 3.1 µM. Further, the Activity in data set [2] came to 23.7%.
Take `Clc1cccc(CNc2ncnc3nc[nH]c23)c1`: the concentration for a half-maximal effect (EC50) in data set [1] stood at 16 µM. For the same compound, the Activity in data set [2] was found to be 12.5%.
On to `OC[C@H](Nc1ncnc2[nH]c(C(F)(F)F)cc12)c1ccccc1`, for which the EC50 in data set [1] was found to be 14.7 µM. Also, the Activity in data set [2] is 30.4%.
In the same order, the values of `C[C@H](Nc1ncnc2[nH]cnc12)c1ccccc1` are 2 µM and 11.7%.
In the same order, the values of `FC(F)(F)c1cc2c(NC3CCCc4ncncc43)ncnc2[nH]1` (stereo unspecified) are greater than 50 µM and 12%.
In data set [1], `CC(=O)N1CCC(Nc2ncnc3[nH]c(C(F)(F)F)cc23)c2ccccc21` (stereo unspecified) returned an EC50 of 17.3 µM. The Activity stood at 6.9% in data set [2], 6.92% in data set [3] and 2.69% in data set [4].
`Cc1nc2c(N[C@H](C)c3ccccc3)ncnc2[nH]1` gave a 50% effective concentration (EC50) in data set [1] greater than 50 µM. Also, in data set [2], the Activity worked out at 9.7%.
As to `CCCCNc1ncnc2[nH]c(C)cc12`, the Activity in data set [6] was 43.4%; in data set [2] it was 15.4%.
Take `FC(F)(F)c1cc2c(NC3CCc4ccccc43)ncnc2[nH]1` (stereo in doubt; 17): the Activity in data set [6] (6 h, 6.3 µM) is recorded as 14.8%; in data set [2], 2.3%.
In data set [1], `CC(C)[C@@H](Nc1ncnc2[nH]c(C(F)(F)F)cc12)c1cncnc1` yielded an EC50 of 6.9 µM. Besides, the Activity in data set [2] was determined as 6.8%.
Consider `COc1cc(CNc2ncnc3[nH]c(C4CC4)nc23)ccn1`, for which the EC50 in data set [1] is greater than 50 µM. Also, the Activity in data set [2] was determined as 7.1%.
`CN1CCC(Nc2ncnc3[nH]c(C(F)(F)F)cc23)c2ccccc21` (stereo unspecified): the concentration for a half-maximal effect (EC50) in data set [1] was found to be 1.81 µM. Also, the Activity in data set [2] is on record as 28.1%.
Regarding `CCCCNc1ncnc2[nH]c(C(F)(F)F)cc12`, the figures for the Activity in data set [6] and in data set [2] were 42.3% and 4.6%, respectively.
As for `CCCCNc1ncnc2[nH]c(-c3ccccc3)cc12`, the Activity is 52% in data set [6] and 90% in data set [2].
As for `COc1ccccc1CNc1ncnc2nc[nH]c12`, a half-maximal effect in data set [1] (EC50) was put at 10.8 µM. Also, the Activity in data set [2] is on record as 12.4%.
The like results for `C[C@@H](Nc1ncnc2[nH]c(C3CC3)nc12)c1ccccc1` were, in that order, greater than 50 µM and 12.3%.
The like results for `COc1ccccc1CNc1ncnc2[nH]c(C(F)(F)F)cc12` were, in that order, 2 µM and 24.7%.
`C[C@@H](Nc1ncnc2[nH]c(C(F)(F)F)cc12)c1ccccc1` had a concentration giving a half-maximal response (EC50) in data set [1] of 3.1 µM. Besides, in data set [2], the Activity is listed as 63.7%.
`C[C@@H](Nc1ncnc2[nH]c(C(F)(F)F)cc12)c1cncnc1` came in with a concentration for a half-maximal effect (EC50) in data set [1] of 21.6 µM. In addition, the Activity in data set [2] is 22.9%.
Consider `CO[C@H]1COc2ccccc2[C@@H]1Nc1ncnc2[nH]c(C(F)(F)F)cc12`, for which, in data set [1], the midpoint of the response, the EC50, lay at 4 µM. In addition, the Activity is reported as 15.9% in data set [2], 15.865% in data set [3] and 3.66% in data set [4].
Take `CCCCNc1ncnc2[nH]c(CC)cc12`: the Activity is given as 14% in data set [6] and 93.4% in data set [2].
On to `FC(F)(F)c1cc2c(NC3CCN(Cc4ccccc4)CC3)ncnc2[nH]1`, for which, in data set [1], a half-maximal response (EC50) required 21.4 µM. Further, the Activity in data set [2] came out at 43.9%.
Take `COc1ccc2c(c1)CCCC2Nc1ncnc2[nH]c(C(F)(F)F)cc12` (stereo unspecified): the Activity in data set [6] stood at 29.8%; in data set [2], 95.5%.
In the case of `CCCCNc1ncnc2[nH]c(C3CCC3)nc12`, the concentration for a half-maximal effect (EC50) in data set [1] is greater than 50 µM. Further, the Activity in data set [2] is listed as 6.1%.
In turn, `O[C@@H]1Cc2ccccc2[C@@H]1Nc1ncnc2[nH]c(C(F)(F)F)cc12` displayed an EC50 in data set [1] of 9 µM. Also, the Activity is given as 35.6% in data set [2], 35.6% in data set [3] and 5.5% in data set [4].
With `CCCCNc1ncnc2[nH]c(CC(F)(F)F)cc12`, the results for the Activity in data set [6] and in data set [2] were 13.9% and 24.8%, respectively.
Compound `CC(Nc1ncnc2[nH]cnc12)c1ccccc1` (stereo unspecified) yielded a 50% effective concentration (EC50) in data set [1] of 2.69 µM. For the same compound, in data set [2], the Activity was determined as 18.2%.
`CO[C@@H]1COc2ccccc2[C@H]1Nc1ncnc2[nH]c(C(F)(F)F)cc12` had an EC50 in data set [1] of 6.3 µM. In addition, the figures for the Activity in data set [2], in data set [3] and in data set [4] were 10.6%, 10.645% and 2.61%, respectively.
